Laboratory results published in patent publication US20220211681A1, “COMPOSITIONS AND METHODS FOR PREVENTING INFLAMMATORY CONDITIONS” (Trustees of Tufts College, priority 2019, published 2022).

Key:
[1] = tested on: colonic tumors; experiment: Colonic tumorigenesis in HFD-fed, AOM-treated FVB mice; type: in vivo
From the text: Animals, diet and dosage information: The animal protocol was approved by the Institutional Animal Care and Use Committee of Tufts University (42015-155). Male FVB mice (4 weeks old) were obtained from the Jackson Laboratory (Bar Harbor, Me., USA), and were given free access to food (AIN-93G) and water for one week. The high-fat diet (HFD, D12450B) and low-fat diet (LFD, D12492) contained 60% and 10% of their calories as lard, respectively (Research Diets, diet details: Supplementary Tables 1, 2). […] One week after the sixth AOM injection, mice were randomized to receive 1 of 5 experimental diets: 1) LFD control, 2) […], 3) HFD containing 0.2% CUR (wt %), […], as pyridoxine HO), and 5) HFD containing both agents […]. There were 21 mice in each group. Body composition was determined by Echo-900 MRI (Houston, Tex., USA) at 21 weeks after arrival. All mice were sacrificed by isoflurane asphyxiation at 22 weeks after arrival. The liver and spleen were collected and weighed.
The dose of CUR (0.2 wt %) used in this study is equivalent to approximately 1 g/day for human dietary intake in a 60 kg adult based on equivalent surface area dosage conversion method^(30). The dose of B6 used is at 4-times the basal requirement (supplemented level) for mice. […] The colons were excised, opened longitudinally, rinsed with ice cold PBS containing protease and phosphatase inhibitors (pH 7.4) and carefully inspected under a dissection microscope. The number and size of tumors in the colons were recorded. The sizes of tumors were determined by the following formula: tumor volume (mm^3)=L×W×[(L+W)/2], where L is the length and W is the width of the tumors. Tumors and one 2-3 mm length piece of mid-colon from each mouse were fixed in 10% buffered formalin (pH 7.4) for 24 h for further histopathologic and immunohistochemical (IHC) analysis. The opened colon, spread out on a glass plate sitting atop crushed ice, was then gently scraped using glass microscope slides and the mucosa thus obtained was stored at −80° C. for future analyses. The pathology of the colonic tumors was characterized by a rodent histopathologist at the Harvard Rodent Histopathology Core (Boston, Mass., USA) who was blinded to the diet groups, and the tumors were graded as either non-neoplastic, adenomas or invasive cancers. The tumor data reported below includes only those confirmed to be either adenomas or cancers.
Statistical analyses: Data are presented as means±standard error (SE) for the indicated number of independently performed experiments. All statistical analyses were performed using SAS Version 9.3 (SAS Institute, Cary, N.C., USA). […] The tumor incidence was statistically calculated using the chi-square test. […]

[2] = tested on: calprotectin; experiment: Fecal calprotectin by Mouse S100A8/S100A9 Heterodimer DuoSet ELISA; type: in vivo, FVB mice; details: vs obese control
From the text: (§1) Frozen fecal samples obtained in the colon upon euthanasia and then measured by Mouse S100A8/S100A9 Heterodimer DuoSet ELISA according to manufacturer's instructions (R&D Systems, Minneapolis, Minn.) and normalized by protein concentrations. Data are shown as the mean±SE, Different superscript letters in the bar charts indicate significant differences (p<0.05) by one-way analysis of variance (ANOVA) with Tukey's test.
(§2) Determination of pro-inflammatory cytokines in plasma and calprotectin in feces: Plasma samples were then used for determination IL-1β, IL-6, and TNT-α concentrations by V-PLEX Proinflammatory Panel 1 (mouse) Kit on a chemiluminescence platform (MesoScale Discovery (MSD), Rockville, Md., USA) according to the manufacturer's instructions. For fecal calprotectin measures, frozen fecal samples obtained in the colon upon euthanasia were lysed in ice-cold PBS containing 1% BSA, 0.05% Tween20 and protease inhibitor. Protein concentrations were determined using the BCA method. Fecal calprotectin levels were measured by Mouse S100A8/S100A9 Heterodimer DuoSet ELISA according to manufacturer's instructions (R&D Systems, Minneapolis, Minn.) and normalized by protein concentrations.

[3] = tested on: β-catenin; experiment: Western blot of nuclear β-catenin in colonic mucosa (Wnt signaling); type: in vivo, FVB mice; details: colonic mucosa nuclear fraction, p<0.03
From the text: (§3) Each lane contained colonic mucosa collected from two individual mice that were pooled for immunoblot analysis (n=6). Data are representative of two independent experiments. Band intensity was normalized to Lamin B1 (nuclear fraction) or β-actin (whole tissue lysate) and measured by Quantity One 1-D Analysis Software (Bio-Rad). Data are shown as the mean±SE. Multiple comparisons with Hochberg method were employed to control the False Discovery Rate. Different superscript letters in the bar charts indicate significant differences (p<0.05) by one-way analysis of variance (ANOVA) with Tukey's test.
(§4) Western blot analyses: The nuclear and cytoplasmic fractions were prepared using the Nuclear Extraction Kit (Abeam) according to the manufacturer's instructions and subjected to Western blot analysis. Protein concentrations were determined using the BCA method. Briefly, equal amount of proteins (50 μg) were resolved over 4-12% SDS-polyacrylamide gel electrophoresis and transferred to nitrocellulose membranes. […] Band intensity was normalized to Lamin B1 (nuclear fraction) and measured by Quantity One 1-D Analysis Software (Bio-Rad, Hercules, Calif., USA).

[4] = tested on: PI3K; experiment: Western blot of p-PI3K/PI3K in colonic mucosa; type: in vivo, FVB mice
From the text: as §3, §4

[5] = tested on: IL-6; experiment: Plasma IL-6 by V-PLEX Proinflammatory Panel 1 (mouse) Kit; type: in vivo, FVB mice; details: vs obese control; combination p=0.07
From the text: as §1, §2

In the case of Cc1ncc(CO)c(CO)c1O.Cl [B6, pyridoxine hydrochloride], the Tumor incidence ([1]; HFD-fed, AOM-treated FVB mice, agent in diet) is reported as 59%, the “Tumor multiplicity (Tumors per mouse)” value ([1]; HFD-fed, AOM-treated FVB mice, agent in diet (CUR 0.2% w/w, B6 24 mg/kg), mean ± SE) is reported as 0.95 ± 0.22^ab and the “Tumor burden (Total volume of tumors per mouse, mm^3)” value ([1]; HFD-fed, AOM-treated FVB mice, agent in diet, mean ± SE) is reported as 17.19 ± 7.38^ab mm^3. The “Suppression of colorectal tumorigenesis (in words)” value ([1]; vs HFD obese control) was “neither CUR nor B6 alone was sufficient to suppress colorectal tumorigenesis”, the “Suppression of fecal calprotectin (in words)” value [2] was “did not cause a significant suppression” and the “Level of nuclear β-catenin in comparison to the obese control (in words)” value [3] was “reduced level of nuclear β-catenin”. The “Suppression of PI3K activation (in words)” value [4] was “did not cause a significant suppression” and the “Plasma IL-6 level (in words)” value [5] was “non-significant reduction”.
